Measured values reported in US11472798B2 (Mission Therapeutics Limited, priority 2014, dated 2022).

biological target: T1, UCHL1 (Homo sapiens, UniProt P09936); experiment: UCHL1 biochemical IC50 assay (fluorescence polarisation); settings: 30 min enzyme/compound pre-incubation at room temp, read after 2 hr incubation, read-out: Activity range (UCHL1 biochemical IC50 assay)
T1 construct: made in house; host or cells: HEK293T
T1 sequence (P09936 1-223): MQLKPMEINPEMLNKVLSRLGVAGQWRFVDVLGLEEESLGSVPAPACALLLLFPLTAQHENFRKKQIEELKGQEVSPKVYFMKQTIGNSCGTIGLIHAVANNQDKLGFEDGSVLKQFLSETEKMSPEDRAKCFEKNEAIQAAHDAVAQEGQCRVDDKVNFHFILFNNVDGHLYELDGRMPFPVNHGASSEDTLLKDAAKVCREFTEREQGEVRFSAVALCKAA
Method in brief: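 Fluorescence polarisation (ex 540/em 590 nm) of 50 nM TAMRA-labelled ubiquitin–peptide isopeptide substrate was read at time zero and after 2 h at room temperature. Compounds (100–0.03 μM final, in duplicate) were given 30 min preincubation with N-FLAG UCHL1 from HEK293T cells in pH 7.5 Tris buffer.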

Row | SMILES | IC50 [nM]
1 | Cc1nc(NC(=O)[C@H]2CCN(C#N)C2)sc1CN1CCOCC1 [Example 65, (S)-1-cyano-N-(4-methyl-5-(morpholinomethyl)thiazol-2-yl)pyrrolidine-3-carboxamide] | < 1000
2 | Cc1ccc(-c2ccc(NC(=O)C3CCN(C#N)C3)nc2)cc1 (stereo not shown) [Example 134, 1-cyano-N-(5-(p-tolyl)pyridin-2-yl)pyrrolidine-3-carboxamide] | 1000 to 10000
3 | CC(C)S(=O)(=O)N1CCn2nc(NC(=O)[C@H]3CCN(C#N)C3)cc2C1 [Example 240, (S)-1-cyano-N-(5-(isopropylsulfonyl)-4,5,6,7-tetrahydropyrazolo[1,5-a]pyrazin-2 yl)pyrrolidine-3-carboxamide] | < 1000
4 | CNC(=O)c1ccc(-c2cnc(NC(=O)[C@H]3CCN(C#N)C3)s2)cc1 [Example 64, (S)-1-cyano-N-(5-(4-(methyl-carbamoyl)phenyl)thiazol-2-yl)pyrrolidine-3-carboxamide] | < 1000
5 | N#CN1CC[C@H](C(=O)Nc2cn(-c3cccnc3)cn2)C1 [Example 181, (S)-1-cyano-N-(1-(pyridin-3-yl)-1H-imidazol-4-yl)pyrrolidine-3-carboxamide] | < 1000
6 | N#Cc1ccc(-n2cnc(NC(=O)[C@H]3CCN(C#N)C3)c2)cc1C1CC1 [Example 304, (S)-1-cyano-N-(1-(4-cyano-3-cyclopropylphenyl)-1H-imidazol-4-yl)pyrrolidine-3-carboxamide] | < 1000
7 | CN(C)CC(=O)N1CCc2nc(NC(=O)[C@H]3CCN(C#N)C3)sc2C1 [Example 197, (S)-1-cyano-N-(5-(dimethylglycyl)-4,5,6,7-tetrahydrothiazolo[5,4-c]pyridin-2-yl)pyrrolidine-3-carboxamide] | 1000 to 10000
8 | N#Cc1ccc(-n2cnc(NC(=O)[C@H]3CCN(C#N)C3)c2)cc1OC(F)(F)F [Example 310, (S)-1-cyano-N-(1-(4-cyano-3-(trifluoromethoxy)phenyl)-1H-imidazol-4-yl)pyrrolidine-3-carboxamide] | < 1000
9 | N#CN1CC[C@H](C(=O)Nc2ncc(-c3ccc4[nH]ncc4c3)s2)C1 [Example 223, (S)-N-(5-(1H-indazol-5-yl)thiazol-2-yl)-1-cyanopyrrolidine-3-carboxamide] | < 1000
10 | N#CN1CC[C@H](C(=O)Nc2cn(C3Cc4ccccc4C3)cn2)C1 [Example 164, (S)-1-cyano-N-(1-(2,3-dihydro-1H-inden-2-yl)-1H-imidazol-4-yl)pyrrolidine-3-carboxamide] | < 1000
11 | C[C@H]1[C@@H](C(=O)Nc2ncc(-c3ccccc3Cl)s2)CCN1C#N [Example 77, (2S,3S)—N-(5-(2-chlorophenyl)thiazol-2-yl)-1-cyano-2-methylpyrrolidine-3-carboxamide] | 1000 to 10000
12 | CNc1cc(-c2ccnc(NC(=O)[C@H]3CCN(C#N)C3)c2)ccn1 [Example 259, (S)-1-cyano-N-(2′-(methylamino)-[4,4′-bipyridin]-2-yl)pyrrolidine-3-carboxamide] | 1000 to 10000
13 | N#CN1CC[C@H](C(=O)Nc2ncc(-c3cccc4c3NC(=O)C4)s2)C1 [Example 228, (S)-1-cyano-N-(5-(2-oxoindolin-7-yl)thiazol-2-yl)pyrrolidine-3-carboxamide] | < 1000
14 | COC[C@@H]1CCCN1c1cnc(NC(=O)[C@H]2CCN(C#N)C2)s1 [Example 100, (S)-1-cyano-N-(5-((S)-2-(methoxymethyl)pyrrolidin-1-yl)thiazol-2-yl)pyrrolidine-3-carboxamide] | < 1000
15 | Cc1noc(C)c1-c1ccn2cc(NC(=O)[C@H]3CCN(C#N)C3)nc2c1 [Example 127, (S)-1-cyano-N-(7-(3,5-dimethylisoxazol-4-yl)imidazo[1,2-a]pyridin-2-yl)pyrrolidine-3-carboxamide] | < 1000
16 | C[C@H]1[C@@H](C(=O)Nc2cn(-c3ccccc3)cn2)CCN1C#N [Example 74, (2S,3S)-1-cyano-2-methyl-N-(1-phenyl-1H-imidazol-4-yl)pyrrolidine-3-carboxamide] | < 1000

Row | SMILES | IC50 [nM]
17 | CC1CC(C(=O)Nc2ncc(N3CCCCC3)s2)CN1C#N (stereo not shown) [Example 105, 1-cyano-5-methyl-N-(5-(piperidin-1-yl)thiazol-2-yl)pyrrolidine-3-carboxamide] | 1000 to 10000
18 | N#CN1CC[C@H](C(=O)Nc2cn(-c3ccncc3)cn2)C1 [Example 182, (S)-1-cyano-N-(1-(pyridin-4-yl)-1H-imidazol-4-yl)pyrrolidine-3-carboxamide] | < 1000
19 | N#CN1CCC(C(=O)Nc2ccccn2)C1 (stereo not shown) [Example 24, 1-cyano-N-(pyridin-2-yl)pyrrolidine-3-carboxamide] | 10000 to 30000
20 | CC(C)S(=O)(=O)N1CCc2nc(NC(=O)[C@H]3CCN(C#N)C3)sc2CC1 [Example 277, (S)-1-cyano-N-(6-(isopropylsulfonyl)-5,6,7,8-tetrahydro-4H-thiazolo[4,5-d]azepin-2-yl)pyrrolidine-3-carboxamide] | < 1000
21 | N#CN1CC[C@@H](C(=O)Nc2ncc(N3CCOCC3)s2)C1 [Example 102, (R)-1-cyano-N-(5-morpholinothiazol-2-yl)pyrrolidine-3-carboxamide] | 1000 to 10000
22 | Cc1noc(C)c1-c1cnc2nc(NC(=O)[C@H]3CCN(C#N)C3)sc2c1 [Example 285, (S)-1-cyano-N-(6-(3,5-dimethylisoxazol-4-yl)thiazolo[4,5-b]pyridin-2-yl)pyrrolidine-3-carboxamide] | 1000 to 10000
23 | N#CN1CC[C@H](C(=O)Nc2ncc(-c3ccc(C(F)(F)F)cc3)s2)C1 [Example 68, (S)-1-cyano-N-(5-(4-(trifluoromethyl)phenyl)thiazol-2-yl)pyrrolidine-3-carboxamide] | < 1000
24 | N#CN1CC[C@H](C(=O)Nc2cc(-c3ccccc3)[nH]n2)C1 [Example 42, (S)-1-cyano-N-(5-phenyl-1H-pyrazol-3-yl)pyrrolidine-3-carboxamide] | < 1000
25 | N#CN1CC[C@H](C(=O)Nc2cn(-c3ccccc3F)cn2)C1 [Example 152, (S)-1-cyano-N-(1-(2-fluorophenyl)-1H-imidazol-4-yl)pyrrolidine-3-carboxamide] | < 1000
26 | Cc1[nH]ncc1-c1ccnc(NC(=O)[C@H]2CCN(C#N)C2)c1 [Example 295, (S)-1-cyano-N-(4-(5-methyl-1H-pyrazol-4-yl)pyridin-2-yl)pyrrolidine-3-carboxamide] | 1000 to 10000
27 | COc1ccc(NC(=O)C2CCN(C#N)C2)nc1 (stereo not shown) [Example 27, 1-cyano-N-(5-methoxy-pyridin-2-yl)pyrrolidine 3-carboxamide] | 10000 to 30000
28 | CC(C)(C)c1cc(NC(=O)C2CCN(C#N)C2)no1 (stereo not shown) [Example 16, N-(5-(tert-butyl)isoxazol-1-3-yl)-1-cyano-pyrrolidine-3-carboxamide] | 10000 to 30000
29 | COc1cc(-n2cnc(NC(=O)[C@H]3CCN(C#N)C3)c2)ccc1F [Example 302, (S)-1-cyano-N-(1-(4-fluoro-3-methoxyphenyl)-1H-imidazol-4-yl)pyrrolidine-3-carboxamide] | < 1000
30 | Cc1ccccc1-c1ccc(NC(=O)C2CCN(C#N)C2)nc1 (stereo not shown) [Example 136, 1-cyano-N-(5-(o-tolyl)pyridin-2-yl)pyrrolidine-3-carboxamide] | 1000 to 10000
31 | N#Cc1cccc(-n2cnc(NC(=O)[C@H]3CCN(C#N)C3)c2)c1 [Example 180, (S)-1-cyano-N-(1-(3-cyanophenyl)-1H-imidazol-4-yl)pyrrolidine-3-carboxamide] | < 1000
